Converted amounts (≈) assume the structure as drawn. The source made the active and inactive calls. The calls are words filed in the database; no cut-off is given here.
Key:
Assay type in all cases: functional
Staphylococcus aureus [1] = assay: Antibacterial activity against Staphylococcus aureus ATCC 25923 after 18 to 24 hrs
Bacillus spizizenii = assay: Antibacterial activity against Bacillus subtilis ATCC 6633 after 18 to 24 hrs
Staphylococcus aureus [2] = assay: Antibacterial activity against methicillin-resistant Staphylococcus aureus N315 after 18 to 24 hrs
Pseudomonas aeruginosa = assay: Antibacterial activity against Pseudomonas aeruginosa ATCC 9027 after 18 to 24 hrs
Micrococcus luteus = assay: Antibacterial activity against Micrococcus luteus ATCC 4698 after 18 to 24 hrs; conditions: NCTC 2665
Bacillus = assay: Antibacterial activity against Bacillus proteus ATCC 13315 after 18 to 24 hrs
[3] = (§1) Antibacterial activity against Eberthella typhosa ATCC 14028 after 18 to 24 hrs
Escherichia coli = assay: Antibacterial activity against Escherichia coli ATCC 25922 after 18 to 24 hrs
Eberthella typhosa = assay: as §1

| SMILES | MIC (Staphylococcus aureus [1]) | MIC (Bacillus spizizenii) | MIC (Staphylococcus aureus [2]) | MIC (Pseudomonas aeruginosa) | MIC (Micrococcus luteus) | MIC (Bacillus) | MIC [3] | MIC (Escherichia coli) | MIC (Eberthella typhosa) |
| --- | --- | --- | --- | --- | --- | --- | --- | --- | --- |
| CCn1cc(C(C)=O)c(=O)c2cc(F)c(N3CCCCC3)cc21 | 8.9 mg/L (≈ 28.1 µM) | 12.7 mg/L (≈ 40.1 µM) | 17.8 mg/L (≈ 56.3 µM) | 22.8 mg/L (≈ 72.1 µM) | 10.1 mg/L (≈ 31.9 µM) | 20.3 mg/L (≈ 64.2 µM) | 121 mg/L (≈ 383 µM) | 40.6 mg/L (≈ 128 µM) |  |
| CCn1cc(-c2csc(N)n2)c(=O)c2cc(N3CCOCC3)c(Cl)cc21 | 0.8 mg/L (≈ 2.05 µM) | 255 mg/L (≈ 653 µM) | 255 mg/L (≈ 653 µM) | 170 mg/L (≈ 435 µM) | 128 mg/L (≈ 327 µM) | inactive | 95.7 mg/L (≈ 245 µM) | 128 mg/L (≈ 327 µM) |  |
| CCn1cc(-c2csc(N)n2)c(=O)c2cc(F)c(Cl)cc21 | inactive | 10.6 mg/L (≈ 32.7 µM) | 8 mg/L (≈ 24.7 µM) | 1.6 mg/L (≈ 4.94 µM) | 26.6 mg/L (≈ 82.2 µM) | 3.3 mg/L (≈ 10.2 µM) | 2.6 mg/L (≈ 8.03 µM) | 6.7 mg/L (≈ 20.7 µM) |  |
| CCn1cc(-c2csc(N)n2)c(=O)c2cc(N3CCN(C(=O)OC(C)(C)C)CC3)c(Cl)cc21 | 128 mg/L (≈ 261 µM) | 21.3 mg/L (≈ 43.5 µM) | 32 mg/L (≈ 65.3 µM) | 8 mg/L (≈ 16.3 µM) | 53.2 mg/L (≈ 109 µM) | 32 mg/L (≈ 65.3 µM) |  | 10.7 mg/L (≈ 21.8 µM) | inactive |
| CCn1cc(C(C)=O)c(=O)c2cc(F)c(N3CCN(C(=O)OC(C)(C)C)CC3)cc21 | 16 mg/L (≈ 38.3 µM) | 21.3 mg/L (≈ 51 µM) | 64 mg/L (≈ 153 µM) | inactive | inactive | 16 mg/L (≈ 38.3 µM) | 42.7 mg/L (≈ 102 µM) | 128 mg/L (≈ 307 µM) |  |
| CCn1cc(-c2csc(N)n2)c(=O)c2cc(F)c(N3CCOCC3)cc21 | 0.8 mg/L (≈ 2.14 µM) | 18.7 mg/L (≈ 49.9 µM) | 32 mg/L (≈ 85.5 µM) | 10.7 mg/L (≈ 28.6 µM) | 13.3 mg/L (≈ 35.5 µM) | 1.7 mg/L (≈ 4.54 µM) | 14.7 mg/L (≈ 39.3 µM) | 6 mg/L (≈ 16 µM) |  |
| CCn1cc(-c2csc(N)n2)c(=O)c2cc(F)c(N3CCNCC3)cc21 | 16 mg/L (≈ 42.8 µM) | 10.7 mg/L (≈ 28.7 µM) | 32.1 mg/L (≈ 86 µM) | 4 mg/L (≈ 10.7 µM) | 64.2 mg/L (≈ 172 µM) | 2 mg/L (≈ 5.36 µM) | 10.7 mg/L (≈ 28.7 µM) | 16 mg/L (≈ 42.8 µM) |  |
| CCn1cc(C(C)=O)c(=O)c2cc(F)c(N3CCCC3)cc21 | 5.1 mg/L (≈ 16.9 µM) | 244 mg/L (≈ 809 µM) | 50.9 mg/L (≈ 168 µM) | 12.7 mg/L (≈ 42 µM) | 244 mg/L (≈ 808 µM) | 33.1 mg/L (≈ 109 µM) | 122 mg/L (≈ 404 µM) | 43.3 mg/L (≈ 143 µM) |  |
| CCn1cc(C(C)=O)c(=O)c2cc(N3CCCCC3)c(Cl)cc21 | 37.3 mg/L (≈ 112 µM) | 35.4 mg/L (≈ 106 µM) | 128 mg/L (≈ 385 µM) | 42.7 mg/L (≈ 128 µM) | 37.3 mg/L (≈ 112 µM) | 171 mg/L (≈ 513 µM) |  | 13.3 mg/L (≈ 40 µM) | inactive |
| CCn1cc(-c2csc(N)n2)c(=O)c2cccc(F)c21 | inactive | 13.3 mg/L (≈ 46 µM) | inactive | 24 mg/L (≈ 82.9 µM) | 2.7 mg/L (≈ 9.33 µM) | 256 mg/L (≈ 885 µM) |  | 9.3 mg/L (≈ 32.1 µM) | inactive |
| CCn1cc(-c2csc(N)n2)c(=O)c2cc(Cl)cc(Cl)c21 | 3 mg/L (≈ 8.82 µM) | 2.7 mg/L (≈ 7.94 µM) | inactive | 2.3 mg/L (≈ 6.76 µM) | 16 mg/L (≈ 47 µM) | 3.3 mg/L (≈ 9.7 µM) | 2.7 mg/L (≈ 7.94 µM) | 21.2 mg/L (≈ 62.3 µM) |  |
| CCn1cc(-c2csc(N)n2)c(=O)c2cc(N3CCNCC3)c(Cl)cc21 | 8 mg/L (≈ 20.5 µM) | 2 mg/L (≈ 5.13 µM) | inactive | 10.7 mg/L (≈ 27.4 µM) | 32 mg/L (≈ 82.1 µM) | 6.4 mg/L (≈ 16.4 µM) | 8 mg/L (≈ 20.5 µM) | 128 mg/L (≈ 328 µM) |  |
| CCn1cc(C(C)=O)c(=O)c2cc(N3CCCC3)c(Cl)cc21 | 18.7 mg/L (≈ 58.7 µM) | 10.7 mg/L (≈ 33.6 µM) | 16 mg/L (≈ 50.2 µM) | 9.3 mg/L (≈ 29.2 µM) | 10.7 mg/L (≈ 33.6 µM) | 64 mg/L (≈ 201 µM) | 18.7 mg/L (≈ 58.7 µM) | 26.7 mg/L (≈ 83.8 µM) |  |
| CCn1cc(-c2csc(N)n2)c(=O)c2cc(F)ccc21 | 128 mg/L (≈ 442 µM) | 3.3 mg/L (≈ 11.4 µM) | inactive | 13.3 mg/L (≈ 46 µM) | 18.7 mg/L (≈ 64.6 µM) | 10.7 mg/L (≈ 37 µM) | 21.3 mg/L (≈ 73.6 µM) | 24 mg/L (≈ 82.9 µM) |  |
| CCn1cc(-c2csc(N)n2)c(=O)c2cc(C)ccc21 | 2.4 mg/L (≈ 8.41 µM) | 64.4 mg/L (≈ 226 µM) | 129 mg/L (≈ 451 µM) | 2.7 mg/L (≈ 9.46 µM) | 5.4 mg/L (≈ 18.9 µM) | 0.8 mg/L (≈ 2.8 µM) | 24.1 mg/L (≈ 84.5 µM) | 4.7 mg/L (≈ 16.5 µM) |  |
| CCn1cc(-c2csc(N)n2)c(=O)c2ccc(C(F)(F)F)cc21 | 128 mg/L (≈ 377 µM) | 63.9 mg/L (≈ 188 µM) | 53.2 mg/L (≈ 157 µM) | 13.3 mg/L (≈ 39.2 µM) | inactive | 13.3 mg/L (≈ 39.2 µM) | 1.7 mg/L (≈ 5.01 µM) | 5.3 mg/L (≈ 15.6 µM) |  |
| O=C(N[C@H](CO)[C@H](O)c1ccc([N+](=O)[O-])cc1)C(Cl)Cl [CHLORAMPHENICOL] | 16 mg/L (≈ 49.5 µM) | 26.6 mg/L (≈ 82.3 µM) | 21.3 mg/L (≈ 65.9 µM) | 32 mg/L (≈ 99 µM) | 13.3 mg/L (≈ 41.2 µM) | 32 mg/L (≈ 99 µM) | 26.6 mg/L (≈ 82.3 µM) | 13.8 mg/L (≈ 42.7 µM) |  |
| CCn1cc(-c2csc(N)n2)c(=O)c2cc(OC)ccc21 | 18.8 mg/L (≈ 62.4 µM) | 10.7 mg/L (≈ 35.5 µM) | 256 mg/L (≈ 849 µM) | 21.3 mg/L (≈ 70.7 µM) | 42.7 mg/L (≈ 142 µM) | 2.7 mg/L (≈ 8.96 µM) | 8 mg/L (≈ 26.5 µM) | 13.3 mg/L (≈ 44.1 µM) |  |
| CCn1cc(-c2csc(N)n2)c(=O)c2cc(N3CCCCC3)c(Cl)cc21 | 61.2 mg/L (≈ 157 µM) | 19.6 mg/L (≈ 50.4 µM) | 24.6 mg/L (≈ 63.3 µM) | 34.4 mg/L (≈ 88.4 µM) | 49 mg/L (≈ 126 µM) | 34.4 mg/L (≈ 88.4 µM) | 17.2 mg/L (≈ 44.2 µM) | 118 mg/L (≈ 303 µM) |  |
| CCn1cc(C(C)=O)c(=O)c2cc(F)c(N3CCOCC3)cc21 | 53.3 mg/L (≈ 167 µM) | inactive | 256 mg/L (≈ 804 µM) | 256 mg/L (≈ 804 µM) | 128 mg/L (≈ 402 µM) | 2.7 mg/L (≈ 8.48 µM) | 2.3 mg/L (≈ 7.22 µM) | 256 mg/L (≈ 804 µM) |  |
| CCn1cc(-c2csc(N)n2)c(=O)c2cc(F)c(N3CCCCC3)cc21 | 64 mg/L (≈ 172 µM) | 42.7 mg/L (≈ 115 µM) | 53.3 mg/L (≈ 143 µM) | 42.7 mg/L (≈ 115 µM) | inactive | 37.3 mg/L (≈ 100 µM) | 74.7 mg/L (≈ 201 µM) | 128 mg/L (≈ 344 µM) |  |
| CCn1cc(-c2csc(N)n2)c(=O)c2cc(F)c(N3CCN(C(=O)OC(C)(C)C)CC3)cc21 | 64 mg/L (≈ 135 µM) | 42.7 mg/L (≈ 90.2 µM) | 10.7 mg/L (≈ 22.6 µM) | 8 mg/L (≈ 16.9 µM) | 32 mg/L (≈ 67.6 µM) | 2.6 mg/L (≈ 5.49 µM) | 5.3 mg/L (≈ 11.2 µM) | 10.7 mg/L (≈ 22.6 µM) |  |
| CCn1cc(-c2csc(N)n2)c(=O)c2cc(F)cc(F)c21 | inactive | inactive | inactive | inactive | 256 mg/L (≈ 833 µM) | inactive |  | 64 mg/L (≈ 208 µM) | inactive |
| CCn1cc(-c2csc(N)n2)c(=O)c2cc(F)c(N3CCCC3)cc21 | 32 mg/L (≈ 89.3 µM) | 53.3 mg/L (≈ 149 µM) | 17.3 mg/L (≈ 48.3 µM) | 42.7 mg/L (≈ 119 µM) | 107 mg/L (≈ 298 µM) | 128 mg/L (≈ 357 µM) | 42.7 mg/L (≈ 119 µM) | 9.3 mg/L (≈ 25.9 µM) |  |
| CCn1cc(C(C)=O)c(=O)c2cc(N3CCOCC3)c(Cl)cc21 | inactive | inactive | 128 mg/L (≈ 382 µM) | 42.7 mg/L (≈ 128 µM) | 53.3 mg/L (≈ 159 µM) | 13.3 mg/L (≈ 39.7 µM) | 37.3 mg/L (≈ 111 µM) | inactive |  |
